According to ChEMBL document CHEMBL6182867, “Discovery of ultra short β-peptoids with selective activity against drug-resistant Mycobacterium tuberculosis” (Eur J Med Chem, 2025):
Converted amounts (≈) assume the structure as drawn. The source made the active and inactive calls. The rule behind the calls is not given here.

Tests used:
[1] = tested on: Mycobacterium tuberculosis; assay: Antitubercular activity against Mycobacterium tuberculosis H37Rv ATCC 27294 by microplate alamar blue assay; type: functional
[2] = tested on: Mycobacterium tuberculosis; assay: Antitubercular activity against Mycobacterium tuberculosis H37Rv by microplate alamar blue assay; type: functional
[3] = tested on: Mycobacterium tuberculosis; assay: Antitubercular activity against Mycobacterium tuberculosis KMA 1354 by microplate alamar blue assay; type: functional
[4] = tested on: Mycobacterium tuberculosis; assay: Antitubercular activity against Mycobacterium tuberculosis KMA 3899 by microplate alamar blue assay; type: functional
[5] = tested on: Mycobacterium tuberculosis; assay: Antitubercular activity against Mycobacterium tuberculosis KMA 4244 by microplate alamar blue assay; type: functional
[6] = tested on: Mycobacterium tuberculosis; assay: Antitubercular activity against Mycobacterium tuberculosis KMA 4439 by microplate alamar blue assay; type: functional
[7] = tested on: Mycobacterium tuberculosis; assay: Antitubercular activity against Mycobacterium tuberculosis KMA 5282 by microplate alamar blue assay; type: functional
Enterococcus faecium = assay: Antibacterial activity against Enterococcus faecium by microplate alamar blue assay; type: functional
Staphylococcus aureus = assay: Antibacterial activity against Staphylococcus aureus by microplate alamar blue assay; type: functional
Klebsiella pneumoniae = assay: Antibacterial activity against Klebsiella pneumoniae by microplate alamar blue assay; type: functional
Acinetobacter baumannii = assay: Antibacterial activity against Acinetobacter baumannii by microplate alamar blue assay; type: functional
Pseudomonas aeruginosa = assay: Antibacterial activity against Pseudomonas aeruginosa by microplate alamar blue assay; type: functional
Klebsiella aerogenes = assay: Antibacterial activity against Enterobacter aerogenes by microplate alamar blue assay; type: functional
[8] = Cytotoxicity against African green monkey Vero cells measured after 3 days by resazurin dye based fluorescence assay; type: toxicity, cell-based; details: African green monkey (Chlorocebus sabaeus)
[9] = tested on: Mycobacterium tuberculosis; assay: Bactericidal activity against Mycobacterium tuberculosis H37Rv measured up to 7 days by luminescence assay; type: functional; details: time <= 7 day
[10] = tested on: Mycobacteroides abscessus; assay: Antibacterial activity against Mycobacterium abscessus ATCC 19977 incubated for 3 days by microplate alamar blue assay; type: functional; details: ATCC 19977, 72 h, time 3 day
Mycobacteroides chelonae = assay: Antibacterial activity against Mycobacteroides chelonae ATCC 35752 incubated for 3 days by microplate alamar blue assay; type: functional; details: ATCC 35752, 72 h, time 3 day
Mycobacterium marinum = assay: Antibacterial activity against Mycobacterium marinum ATCC 927 incubated for 5 days by microplate alamar blue assay; type: functional; details: ATCC 927, 120 h, time 5 day
Mycobacterium avium = assay: Antibacterial activity against Mycobacterium avium ATCC 15769 incubated for 6 days by microplate alamar blue assay; type: functional; details: ATCC 15769, 144 h, time 6 day
Mycobacterium kansasii = assay: Antibacterial activity against Mycobacterium kansasii ATCC 12478 incubated for 7 days by microplate alamar blue assay; type: functional; details: ATCC 12478, 168 h, time 7 day
Mitochondrial membrane [11] = assay: Induction of […] membrane potential loss in Mycobacterium tuberculosis H37Rv at <=MIC measured after 15 mins by DiOC2 dye based fluorescence assay; type: cell membranes
Mitochondrial membrane [12] = assay: Induction of […] membrane potential loss in Mycobacterium tuberculosis H37Rv at <=MIC measured after 24 hrs by DiOC2 dye based fluorescence assay; type: cell membranes
Candida albicans = assay: Antifungal activity against Candida albicans by microplate alamar blue assay; type: functional

Molecule CC(C)N(C(=O)CCNCc1cccs1)C(C)C has an MIC90 [1] of 43.8 µg/mL.
NC(=O)c1cnccn1 [PYRAZINAMIDE] gave an MIC90 [2] of 0.43 µM (≈ 0.0529 µg/mL), an MIC90 [3] of 0.25 µM (≈ 0.0308 µg/mL) and an MIC90 [4] of 0.24 µM (≈ 0.0295 µg/mL). The MIC90 [5] was 1.51 µM (≈ 0.186 µg/mL), the MIC90 [6] was 0.49 µM (≈ 0.0603 µg/mL) and the MIC90 [7] was 0.92 µM (≈ 0.113 µg/mL).
Molecule CC(C)N(C(=O)CN(CC(c1ccccc1)c1ccccc1)C(=O)CNCC1CCCO1)C(C)C (stereo not given) has an MIC90 [1] of 24.4 µg/mL.
Molecule COc1c(N2C[C@@H]3CCCN[C@@H]3C2)c(F)cc2c(=O)c(C(=O)O)cn(C3CC3)c12 [MOXIFLOXACIN] has an MIC90 [1] of 0.19 µM, an MIC90 [2] of 0.29 µM (≈ 0.116 µg/mL) and an MIC90 (Enterococcus faecium) of 1.58 µM (≈ 0.634 µg/mL). For the same molecule, the MIC90 (Staphylococcus aureus) was less than 0.195 µM, the MIC90 (Klebsiella pneumoniae) was less than 0.195 µM and the MIC90 (Acinetobacter baumannii) was less than 0.195 µM. The MIC90 (Pseudomonas aeruginosa) was 0.75 µM (≈ 0.301 µg/mL), the MIC90 (Klebsiella aerogenes) was less than 0.195 µM and the MIC90 [3] was 0.12 µM (≈ 0.0482 µg/mL). It also gave an MIC90 [4] of 0.11 µM (≈ 0.0442 µg/mL), an MIC90 [5] of 0.42 µM (≈ 0.169 µg/mL) and an MIC90 [6] of 0.33 µM (≈ 0.132 µg/mL). It also gave an MIC90 [7] of 0.48 µM (≈ 0.193 µg/mL), an IC50 at 3 days [8] greater than 100 µM and an MBC99 [9] of 470 µg/mL (≈ 1.17 mM).
For CC(=O)NC[C@H]1CN(c2ccc(N3CCOCC3)c(F)c2)C(=O)O1 [LINEZOLID], the MIC90 [1] was 0.93 µM, the MIC90 [2] was 0.97 µM (≈ 0.327 µg/mL) and the MIC90 [10] was 88 µM (≈ 29.7 µg/mL). The MIC90 (Mycobacteroides chelonae) was 5.13 µM (≈ 1.73 µg/mL), the MIC90 (Mycobacterium marinum) was 17.4 µM (≈ 5.88 µg/mL) and the MIC90 (Mycobacterium avium) was 93.5 µM (≈ 31.5 µg/mL). The MIC90 (Mycobacterium kansasii) was 85.6 µM (≈ 28.9 µg/mL), the MIC90 [3] was 0.91 µM (≈ 0.307 µg/mL) and the MIC90 [4] was 0.48 µM (≈ 0.162 µg/mL). It also gave an MIC90 [5] of 1 µM (≈ 0.337 µg/mL), an MIC90 [6] of 0.95 µM (≈ 0.32 µg/mL) and an MIC90 [7] of 1.89 µM (≈ 0.638 µg/mL). It also gave an MBC99 [9] of 7310 µg/mL (≈ 21.7 mM).
For CC(C)N(C(=O)CCNCC(c1ccccc1)c1ccccc1)C(C)C, the MIC90 [1] was 10.2 µg/mL.
Molecule O=C(CCNCc1cccc2ccccc12)NCCC(c1ccccc1)c1ccccc1 has an MIC90 [1] of 43.8 µg/mL.
Molecule COCCN(CCOC)C(=O)CCNCCC(c1ccccc1)c1ccccc1 has an MIC90 [1] of 8.9 µg/mL.
In the case of N#CC(C#N)=NNc1cccc(Cl)c1 [CARBONYL CYANIDE M-CHLOROPHENYLHYDRAZONE], the IC50 at 3 days [8] is reported as 10.8 µM, the Activity (Mitochondrial membrane [11]) is reported as “inactive” and the Activity (Mitochondrial membrane [12]) is reported as “Active”.
Work on COCCN(CCOC)C(=O)CCN(CC1CCCO1)C(=O)CCNCC(c1ccccc1)c1ccccc1 (stereo not given) yielded an MIC90 [1] of 6.22 µg/mL.
O=C(CCNCCC(c1ccccc1)c1ccccc1)N1CCCC1 gave an MIC90 [1] of 23.5 µg/mL.
Nc1c2c(nc3ccccc13)CCCC2 [TACRINE] showed an IC50 at 3 days [8] of 90.7 µM.
Molecule CC/C(=C(\c1ccccc1)c1ccc(OCCN(C)C)cc1)c1ccccc1 [TAMOXIFEN] has an IC50 at 3 days [8] of 13.9 µM.
Work on C[C@@H]1[C@H](O)[C@@H](C)/C=C/C=C/C=C/C=C/C=C/C=C/C=C/[C@H](O[C@@H]2O[C@H](C)[C@@H](O)[C@H](N)[C@@H]2O)C[C@@H]2O[C@](O)(C[C@@H](O)C[C@@H](O)[C@H](O)CC[C@@H](O)C[C@@H](O)CC(=O)O[C@H]1C)C[C@H](O)[C@H]2C(=O)O [AMPHOTERICIN B] yielded an MIC90 (Candida albicans) of less than 0.195 µM.
O=C(CCNCC1CCCO1)NCc1cccc2ccccc12 (stereo not given) gave an MIC90 [1] of 87.2 µg/mL.
For CCN(CC)C(=O)CCNCCC1CCCCCCC1, the MIC90 [1] was 12.2 µg/mL.
CC(C)N(C(=O)CNCC(c1ccccc1)c1ccccc1)C(C)C gave an MIC90 [1] of 20.4 µg/mL.
